# From patent US10787640B2, “Producing mesodermal cell types and methods of using the same” (The Board of Trustees of the Leland Stanford Junior …, priority 2015, dated 2020)
# How the values were obtained:
# Type in all cases: cell-based, human
# [1] = system: day 3 early somite progenitors; experiment: Patterning of early somite progenitors into sclerotome or dermomyotome
# Method: Day 2 paraxial mesoderm was briefly washed (DMEM/F12) and further differentiated into day 3 early somite/somitomere precursors for 24 hours (1 μM A-83-01+250 nM LDN-193189+1 μM C59+500 nM PD0325901). Subsequently, day 3 early somites were dorsoventrally patterned into either ventral somites/sclerotome (5 nM 21K+1 μM C59) or dorsal somites/dermomyotome (3 μM CHIR99021+150 nM Vismodegib). Sclerotome induction was conducted for 48-72 hours (leading to day 5-6 ventral somite progenitors). […] Media was changed 24 hours for all steps. The Hedgehog agonist 21K, which has been previously described in, e.g., Brunton et al., 2009 the disclosure of which is incorporated herein by reference in its entirety, was commercially synthesized.
# Day 3 early somites were briefly washed (DMEM/F12), treated with BMP4+CHIR99021+Vismodegib for 24 hours, washed again (DMEM/F12) and subsequently treated with CHIR99021 (3 μM)+21K (5 nM) for 24 hours. This day 5 dermomyotome was further empirically differentiated towards skeletal muscle-like progeny (using medium containing 2% horse serum, which has been previously described in, e.g., Xu et al. 2013, the disclosure of which is incorporated herein by reference in its entirety) for 12 days, yielding day 17 skeletal muscle-containing populations.
# FIG. 11: A) To determine the length of time required for sclerotome differentiation, a qPCR timecourse was performed, encompassing undifferentiated hESCs (D0), day 2 hESC-derived paraxial mesoderm (D2 PXM), day 3 hESC-derived early somite progenitors, and hESC-derived day 3 early somite progenitors that were exposed to sclerotome inductive conditions (5 nM 21K+1 μM C59) for 24 or 48 hours. B) Description of EF1α-BCL2-T2A-GFP lentiviral construct (otherwise known as “C306”; top) and FACS plot of a stably-transduced polyclonal H9 hESC line with near-uniform expression of the BCL2-T2A-GFP transgene (green contour) by comparison to uncolored wild-type hESCs (bottom) (see above methods for details of derivation of the H9 BCL2-T2A-GFP hESC line). C) Higher-magnification picture of BCL2-T2A-GFP hESC-derived sclerotome ectopic bone grafts (originally described above in FIG. 4, panel E), showing that despite the near-ubiquitous expression of GFP throughout the ectopic bone graft (indicating its human provenance), the blood vessels are clearly GFP-negative and therefore presumably derived from the mouse host; scale bar=1 mm. […] L) Description of EF1a-BCL2-T2A-GFP lentiviral construct (otherwise known as “C306”; top) and FACS plot of a stably-transduced polyclonal H9 hESC line with near-uniform expression of the BCL2-T2A-GFP transgene (green contour) by comparison to uncolored wild-type hESCs (bottom) (see the methods described herein for details of derivation of the H9 BCL2-T2A-GFP hESC line). M) Description of UBC-Luciferase-T2A-tdTomato lentiviral construct (top); bioluminescent assay of cultured H9 UBC-Luciferase-T2A-tdTomato hESCs validates that these cells are luciferase-expressing in vitro (bottom).
# lateral mesoderm = experiment: Forelimb versus hindlimb progenitor specification from lateral mesoderm; details: lateral mesoderm induced in presence of retinoid antagonists
# Method: Undifferentiated hPSCs (wild-type H7 as well as TBX5-Venus V19-2 H9 hESCs) were maintained in mTeSR1 media on Geltrex-coated plates. As described, they were differentiated into mid primitive streak for 24 hours (D0-1; 30 ng/mL Activin+40 ng/mL BMP4+6 μM CHIR99021+20 ng/mL FGF2+100 nM PIK90) and subsequently differentiated into lateral mesoderm (D1-2; 1 μM A-83-01+30 ng/mL BMP4+1 μM C59), with the inclusion of 50 nM of TTNPB or 2 μM ATRA on D1-2 for trunk lateral mesoderm that was subsequently competent for forelimb differentiation.
# Day 2 trunk lateral mesoderm was differentiated into day 3 forelimb progenitors (D2-3; 1 μM A-83-01+1 μM DMH1+3 μM CHIR99021). By contrast, day 2 non-trunk lateral mesoderm was differentiated into day 3 hindlimb progenitors (D2-3; 25 ng/mL Activin+1 μM DMH1+3 μM CHIR99021).
# [2] = system: hESC-derived primitive streak; experiment: Paraxial versus lateral/cardiac mesoderm specification from primitive streak; details: ACF with DMH1 1 μM or LDN193189 250 nM; CDF with SB-505124 2 μM or A-83-01 1 μM; 24 hours
# Method: Subsequently, day 1 anterior primitive streak was briefly washed (DMEM/F12) and differentiated towards day 2 paraxial mesoderm for 24 hours (1 μM A-83-01+3 μM CHIR99021+250 nM LDN-193189+20 ng/mL FGF2). Separately, day 1 mid primitive streak was differentiated towards day 2 lateral mesoderm for 24 hours (1 μM A-83-01+30 ng/mL BMP4+1 μM C59; with 2 μM SB-505124 sometimes used instead of A-83-01).
# B) To assess whether FGF/ERK signaling was permissive for both paraxial and lateral/cardiac mesoderm specification, hESCs were differentiated into primitive streak for 24 hours, and then transferred into (i) A-83-01+DM3189 (“AD”; permissive for paraxial mesoderm) or (iii) A-83-01+BMP4+C59 (“AB+C59”; permissive for lateral/cardiac mesoderm) for 24 hours in the presence or absence of a FGF agonist (FGF2, 10-20 ng/mL), an FGFR inhibitor (PD173074, 100 nM) or a MAPK/ERK inhibitor (PD0325901, 500 nM) for 24 hours and qPCR for all experiments was conducted on day 2 (that is, after 48 total hours of hESC differentiation). To assess whether TGFβ signaling altered paraxial, intermediate and lateral/cardiac mesoderm specification, hESCs were differentiated into primitive streak for 24 hours, and then transferred into (ii) DM3189+FGF2 (“DF”; permissive for paraxial mesoderm) or (iv) BMP4+C59 (“B+C59”; permissive for lateral/cardiac mesoderm) for 24 hours in the presence of a TGFβ agonist (Activin, 10-25 ng/mL) or a TGFβR inhibitor (A-83-01, 1 μM) for 24 hours or (v) BMP4 (3 ng/mL)+FGF2 (20 ng/mL) (“B3F20”) for 24 hours in the presence of a TGFβ agonist (Activin, 3-25 ng/mL) or a TGFβR inhibitor (A-83-01, 1 μM) and qPCR for all experiments was conducted on day 2 (that is, after 48 total hours of hESC differentiation). […] Therefore, hESCs were differentiated towards primitive streak for 24 hours, and then subsequently transferred into (i) A-83-01+CHIR99021+FGF2 (ACF) in the presence or absence of one of two BMPR inhibitors (DMH1, 1 μM or LDN193189, 250 nM) for 24 hours and qPCR was conducted on day 2. Alternately, hESC-derived PS was transferred into (ii) CHIR99021+DM3189+FGF2 (CDF) for 24 hours in the presence or absence of a TGFβ agonist (25 ng/mL Activin) or one of two TGFβR inhibitors (SB-505124, 2 μM or A-83-01, 1 μM) for 24 hours and qPCR was conducted on day 2. […] E) To test the role of FGF in lateral mesoderm induction (on day 2 of hESC differentiation), NKX2.5-GFP hESCs were differentiated into mid primitive streak for 24 hours, and then were treated with BMP4+C59+SB505124 in the presence of an FGF agonist (FGF2, 20-50 ng/mL) or a FGFR inhibitor (PD173074, 100 nM) or a MAPK/ERK inhibitor (PD0325901, 500 nM) for 24 hours, and then all cultures were treated with BMP4+C59+SB505124+FGF2 for 24 hours more before being harvested on day 3 for FACS.
# hESCs = experiment: Primitive streak (PS) induction from hESCs, qPCR; details: 24 hours in A3B3F20; 300 ng/mL WNT3A or 0.5-8 μM CHIR99021
# Method: As aforementioned, after overnight plating, hPSCs were briefly washed (with DMEM/F12) and then differentiated into either anterior primitive streak (30 ng/mL Activin A+4 μM CHIR99021+20 ng/mL FGF2+100 nM PIK90; for subsequent paraxial mesoderm induction) or mid primitive streak ([…] Activin A+40 ng/mL BMP4+6 μM CHIR99021+20 ng/mL FGF2+100 nM PIK90; for subsequent cardiac mesoderm induction) for 24 hrs.
# Total cDNA was diluted 1:10-1:30 in H2O and qPCR was performed with the SensiFAST SYBR Lo-ROX Kit (Bioline) with 10 μL qPCR reactions per well in a 384-well plate: 5.0 μL 2× qPCR Master Mix+4.6 μL cDNA (totaling ˜120 ng of cDNA)+0.4 μL of 10 μM primer stock (5 μM forward+5 μM reverse primers). In general, gene-specific primer pairs were tested for (1) specificity of amplicon amplification (only one peak on a dissociation curve) and (2) linearity of amplicon amplification (linear detection of gene expression in cDNA samples serially diluted seven times over two orders of magnitude, with 90-110% efficiency of amplification deemed acceptably linear). After qPCR plates were prepared by arraying sample-specific cDNAs and gene-specific primers, they were sealed and briefly centrifuged (5 mins). 384-well qPCR plates and their adhesive sealing sheets were obtained from Thermo (AB1384 and AB0558, respectively). qPCR plates were run on a 7900HT Fast Real-Time PCR System (Applied Biosystems) with the following cycling parameters: initial dissociation (95° C., 2 mins) followed by 40 cycles of amplification and SYBR signal detection (95° C. dissociation, 5 seconds; 60° C. annealing, 10 seconds; followed by 72° C. extension, 30 seconds), with a final series of steps to generate a dissociation curve at the end of each qPCR run. During qPCR data analysis, the fluorescence threshold to determine Ct values was set at the linear phase of amplification; other qPCR data analysis methods including qPCR heatmap generation using the GenePattern platform (Broad Institute) were described previously by Loh et al., 2014, the disclosure of which is incorporated herein by reference in its entirety.
# E) To assess whether inducing PS in the presence of TGFβ signaling altered its downstream potential to form different kinds of mesoderm, (i) H7 hESCs were differentiated into PS with CHIR99021+FGF2+PIK90 (CFK) for 24 hours in the presence or absence of increasing amounts of Activin (10-100 ng/mL), and then were transferred into paraxial mesoderm induction conditions (A-83-01+CHIR99021+DM3189+FGF2) for 24 hrs, and qPCR was conducted or (ii) H7 hESCs were differentiated into PS with BMP4 (10 ng/mL)+CHIR99021+FGF2+PIK90 (B10CFK) for 24 hours in the presence or absence of increasing amounts of Activin (10-100 ng/mL), and then were transferred into lateral/cardiac mesoderm inductions (A-83-01+BMP4+C59) for 24 hours and qPCR was conducted. […] F) To assess whether inducing PS in the presence of BMP signaling altered its downstream potential to form different kinds of mesoderm, H7 hESCs were differentiated into PS with Activin (10 ng/mL)+CHIR99021+FGF2+PIK90 (A10CFK) for 24 hours in the presence of absence of increasing amounts of BMP4 (1-40 ng/mL), and then were (i) transferred into paraxial mesoderm induction conditions (A-83-01+CHIR99021+DM3189+FGF2) for 24 hrs, and qPCR was conducted or were (ii) transferred into lateral/cardiac mesoderm inductions (A-83-01+BMP4+C59) for 24 hours and qPCR was conducted. […] G) H7 hESCs were differentiated into anterior primitive streak (30 ng/mL Activin+4 μM CHIR99021+20 ng/mL FGF2+100 nM PIK90) in the presence or absence of BMP4 (10 ng/mL) for 24 hours, and then transferred into paraxial mesoderm induction conditions for 24 hours before TBX6 immunostaining was conducted. […]
molecule,measurement,setting,value
"CN[C@H]1CC[C@H](N(Cc2ccc(OC)c(-c3ccncc3)c2)C(=O)c2sc3c(F)ccc(F)c3c2Cl)CC1 [21K, 3-chloro-4,7-difluoro-N-(4-methoxy-3-(pyridin-4-yl)benzyl)-N-((1r,4r)-4-(methylamino)cyclohexyl)benzo[b]thiophene-2-carboxamide]",sclerotome fate induction,"[1]; 21K with C59, 2-3 days",efficiently induced the sclerotome fate
same,EN1 induction,"[1]; later stage CHIR99021+21K 5 nM, 24-48 hours",important to induce EN1
Cc1ccc(C2=CCC(C)(C)c3ccc(C#Cc4ccc(C(=O)O)cc4)cc32)cc1 [AGN193109],competence of lateral mesoderm for forelimb fate,lateral mesoderm,incompetent to subsequently assume a forelimb fate
CC1(C)CC=C(C#Cc2ccccc2)c2cc(/C=C/c3ccc(C(=O)O)cc3)ccc21 [BMS493],competence of lateral mesoderm for forelimb fate,lateral mesoderm,incompetent to subsequently assume a forelimb fate
"CC(C)Oc1ccc(-c2cnc3c(-c4ccnc5ccccc45)cnn3c2)cc1 [DMH1, 4-[6-[4-(1-Methylethoxy)phenyl]pyrazolo[1,5-a]pyrimidin-3-yl]-quinoline]",paraxial mesoderm induction (qPCR day 2),[2],serve to induce paraxial mesoderm
CS(=O)(=O)c1ccc(C(=O)Nc2ccc(Cl)c(-c3ccccn3)c2)c(Cl)c1 [Vismodegib],dorsal somite marker PAX3 and sclerotome fate,[1]; CHIR together with Vismodegib,sustained dorsal somite marker PAX3 while inhibiting the sclerotome fate
"WNT3A: Wnt agonist, WNT family ligand (protein, UniProt P56704 19-352, looked up) Protein Wnt-3a: SYPIWWSLAVGPQYSSLGSQPILCASIPGLVPKQLRFCRNYVEIMPSVAEGIKIGIQECQHQFRGRRWNCTTVHDSLAIFGPVLDKATRESAFVHAIASAGVAFAVTRSCAEGTAAICGCSSRHQGSPGKGWKWGGCSEDIEFGGMVSREFADARENRPDARSAMNRHNNEAGRQAIASHMHLKCKCHGLSGSCEVKTCWWSQPDFRAIGDFLKDKYDSASEMVVEKHRESRGWVETLRPRYTYFKVPTERDLVYYEASPNFCEPNPETGSFGTRDRTCNVSSHGIDGCDLLCCGRGHNARAERRREKCRCVFHWCCYVSCQECTRVYDVHTCK",PS marker expression (qPCR),hESCs,"broadly induces both anterior (TBX6) and mid/posterior (FOXF1, MESP1) PS markers"
